# Measured values as given in US7763644B2, “Imidazole derivatives, processes for preparing them and their uses” (UCB Pharma, S.A., priority 2003, dated 2010).
# “Also recorded” adds a separate entry of the source.
# How the values were obtained:
# LBS/SV2A = molecular target: T1, LBS/SV2A (Rattus norvegicus, UniProt Q02563); test: Photolabelling of LBS in rat brain membranes, SDS-PAGE; assay type: binding; settings: UV irradiated rat brain membranes, gel slicing
# T1 construct: from tissue; host or cells: rat brain (crude membranes)
# T1 sequence (Q02563 whole entry): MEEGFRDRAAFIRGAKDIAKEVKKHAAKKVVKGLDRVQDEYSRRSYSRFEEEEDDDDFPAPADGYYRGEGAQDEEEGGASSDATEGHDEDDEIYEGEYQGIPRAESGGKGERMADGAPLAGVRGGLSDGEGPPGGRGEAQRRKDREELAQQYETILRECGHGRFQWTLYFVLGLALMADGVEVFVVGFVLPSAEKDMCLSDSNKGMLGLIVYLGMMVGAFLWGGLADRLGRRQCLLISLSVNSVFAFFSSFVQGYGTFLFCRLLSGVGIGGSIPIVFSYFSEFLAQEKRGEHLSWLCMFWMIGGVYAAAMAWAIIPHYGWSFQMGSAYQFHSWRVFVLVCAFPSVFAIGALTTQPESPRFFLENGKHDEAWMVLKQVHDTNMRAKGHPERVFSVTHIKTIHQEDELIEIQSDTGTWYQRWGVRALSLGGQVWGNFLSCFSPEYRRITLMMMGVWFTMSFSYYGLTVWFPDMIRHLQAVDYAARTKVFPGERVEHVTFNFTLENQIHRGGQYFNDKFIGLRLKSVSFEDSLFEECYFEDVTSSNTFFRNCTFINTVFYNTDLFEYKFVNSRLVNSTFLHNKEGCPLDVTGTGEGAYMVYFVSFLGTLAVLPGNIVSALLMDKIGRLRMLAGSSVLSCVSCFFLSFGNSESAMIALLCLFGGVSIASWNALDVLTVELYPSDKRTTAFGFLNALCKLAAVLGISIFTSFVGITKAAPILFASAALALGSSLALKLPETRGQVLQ
# Source text: Y-axis represents the radioactivity (DPM) in gel slices and X-axis represents the gel slice number. Each number and arrow in the graph represents the position and the size in kilodaltons of molecular weight standards.
# This example provides a photoactivable ligand for labelling SV2A/LBS and its detection in biological samples. This ligand was designed to cross-link to the LBS/SV2A with an azidophenyl motif capable of forming a covalent complex with the protein upon UV light irradiation.
# hSV2C [1] = molecular target: T2, hSV2C (Homo sapiens, UniProt Q496J9); test: Radioligand binding to COS-7 cells transfected with SV2C; settings: displaced by excess levetiracetam, FIG. 5
# T2 construct: expressed in transfected cells; host or cells: COS-7 (transient transfection)
# T2 sequence (Q496J9 1-727): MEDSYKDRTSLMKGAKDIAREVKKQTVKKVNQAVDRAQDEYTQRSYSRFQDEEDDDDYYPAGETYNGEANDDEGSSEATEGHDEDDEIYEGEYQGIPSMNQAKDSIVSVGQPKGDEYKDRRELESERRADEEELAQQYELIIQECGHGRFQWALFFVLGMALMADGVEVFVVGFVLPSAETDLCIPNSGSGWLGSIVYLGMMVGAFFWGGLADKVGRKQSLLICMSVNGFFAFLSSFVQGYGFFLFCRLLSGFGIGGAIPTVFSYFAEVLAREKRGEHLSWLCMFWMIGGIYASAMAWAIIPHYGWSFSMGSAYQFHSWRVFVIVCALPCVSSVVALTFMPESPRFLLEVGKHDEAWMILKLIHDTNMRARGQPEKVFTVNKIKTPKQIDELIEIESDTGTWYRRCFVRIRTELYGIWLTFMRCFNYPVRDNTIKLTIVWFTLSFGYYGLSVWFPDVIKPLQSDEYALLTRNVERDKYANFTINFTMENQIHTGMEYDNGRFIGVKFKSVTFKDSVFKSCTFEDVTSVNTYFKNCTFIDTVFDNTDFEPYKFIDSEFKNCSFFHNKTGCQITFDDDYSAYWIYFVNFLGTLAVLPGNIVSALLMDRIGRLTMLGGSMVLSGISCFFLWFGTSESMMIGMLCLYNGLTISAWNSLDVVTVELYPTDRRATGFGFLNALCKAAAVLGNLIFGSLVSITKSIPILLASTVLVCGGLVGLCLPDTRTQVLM
# Source text: (§1) This confirms that labeled-compound Z has poor affinity for utilizing as a probe against SV2C, and that labeled-compound 7 is a preferred probe to utilize in screening against SV2C.
# untransfected cells = test: Radioligand binding to untransfected COS-7 cells; settings: FIG. 5, bars 2
# LBS = molecular target: T3, LBS (Rattus norvegicus, UniProt Q02563); test: Competition binding curves against [^3H]-compound 7, rat brain membranes
# T3 construct: from tissue; host or cells: rat brain (crude membranes)
# T3 sequence (Q02563 whole entry): as the sequence (Q02563 whole entry) above
# Description: FIGS. 2a and 2b depict competition binding curves showing that compound 7 binds to LBS with about 30 fold higher affinity than levetiracetam. […] (M). Test drugs are levetiracetam (2a) and compound 7 (2b).
# Binding experiments were conducted on crude rat brain membranes at 4° C. as described in Noyer M. et al. (Euro. J. Pharmacol. (1995), 286, 137-146). Incubation time for equilibrium studies was 120 min. […] The Bmax being similar to the value estimated using [^3H]-L059 as radioligand in similar membrane preparations (5 pmol/mg protein).
# hSV2C [2] = molecular target: T2, hSV2C; test: IC50 of unlabelled ligands against SV2C, [^3H]-compound 7 as probe; assay type: binding; settings: [^3H]-compound 7 as labeled probe, FIG. 6
# Source text: (M). Depicted are the IC50 curves of compound 7 binding to hSV2A (x) and hSV2C (□), and compound Z binding to hSV2A (▪) and hSV2C (⋄).
# as §1
# human SV2A = human SV2A (Homo sapiens, UniProt Q7L0J3); test: Radioligand binding to SV2A under standard conditions
# human SV2A, sequence (Q7L0J3 whole entry): as the sequence (Q02563 whole entry) above, with E53D, A62S, A71T, D144E, T154A, S440G, A482S, V572I, L634M counted along it
# Source text: as §1
compound,measurement,setting,value
"[^3H]-(+)-4-(3-azido-2,4-difluorophenyl)-1-(1H-imidazol-1-ylmethyl)pyrrolidin-2-one [[^3H]-compound 7]",size of the protein the radiolabel incorporates into,LBS/SV2A,90 kDa
same,binding of radioligand to SV2C expressed in COS-7 cells,hSV2C [1],specific binding; also recorded: binds well
same,specific binding of radioligand in untransfected cells,untransfected cells,no specific binding
"[N-]=[N+]=Nc1c(F)ccc(C2CC(=O)N(Cn3ccnc3)C2)c1F (single isomer, unassigned; (+)) [compound 7, (+)-4-(3-azido-2,4-difluorophenyl)-1-(1H-imidazol-1-ylmethyl)pyrrolidin-2-one]",fold higher affinity for LBS than levetiracetam (L059),LBS; FIG. 2,about 30 fold
same,Ki,LBS; rat brain membranes,31.6 nM
same,affinity to SV2C compared with SV2A (IC50 curves),hSV2C [2],equivalent affinities
"CC[C@@H](C(N)=O)N1CC(c2cccc(N=[N+]=[N-])c2)CC1=O (stereo partly drawn) [compound Z, (2S)-2-[4-(3-azidophenyl)-2-oxopyrrolidin-1-yl]butanamide]",affinity to SV2C compared with SV2A (IC50 curves),hSV2C [2],different affinities; also recorded: much weaker affinity
"CC[C@@H](C(N)=O)N1CC(c2cccc(N=[N+]=[N-])c2)CC1=O (stereo partly drawn) [[^3H]-compound Z, reference compound]",binding of radioligand to SV2A,human SV2A,binds well
same,binding of radioligand to SV2C expressed in COS-7 cells,hSV2C [1],absence of specific binding; also recorded: lack of binding
